Molecular target: H1047R PIK3CA enzyme (Homo sapiens, UniProt P42336, H1047R)
Assay: ADP-Glo Biochemical PIK3CA Kinase Assay

H1047R PIK3CA enzyme, sequence (P42336 whole entry H1047R): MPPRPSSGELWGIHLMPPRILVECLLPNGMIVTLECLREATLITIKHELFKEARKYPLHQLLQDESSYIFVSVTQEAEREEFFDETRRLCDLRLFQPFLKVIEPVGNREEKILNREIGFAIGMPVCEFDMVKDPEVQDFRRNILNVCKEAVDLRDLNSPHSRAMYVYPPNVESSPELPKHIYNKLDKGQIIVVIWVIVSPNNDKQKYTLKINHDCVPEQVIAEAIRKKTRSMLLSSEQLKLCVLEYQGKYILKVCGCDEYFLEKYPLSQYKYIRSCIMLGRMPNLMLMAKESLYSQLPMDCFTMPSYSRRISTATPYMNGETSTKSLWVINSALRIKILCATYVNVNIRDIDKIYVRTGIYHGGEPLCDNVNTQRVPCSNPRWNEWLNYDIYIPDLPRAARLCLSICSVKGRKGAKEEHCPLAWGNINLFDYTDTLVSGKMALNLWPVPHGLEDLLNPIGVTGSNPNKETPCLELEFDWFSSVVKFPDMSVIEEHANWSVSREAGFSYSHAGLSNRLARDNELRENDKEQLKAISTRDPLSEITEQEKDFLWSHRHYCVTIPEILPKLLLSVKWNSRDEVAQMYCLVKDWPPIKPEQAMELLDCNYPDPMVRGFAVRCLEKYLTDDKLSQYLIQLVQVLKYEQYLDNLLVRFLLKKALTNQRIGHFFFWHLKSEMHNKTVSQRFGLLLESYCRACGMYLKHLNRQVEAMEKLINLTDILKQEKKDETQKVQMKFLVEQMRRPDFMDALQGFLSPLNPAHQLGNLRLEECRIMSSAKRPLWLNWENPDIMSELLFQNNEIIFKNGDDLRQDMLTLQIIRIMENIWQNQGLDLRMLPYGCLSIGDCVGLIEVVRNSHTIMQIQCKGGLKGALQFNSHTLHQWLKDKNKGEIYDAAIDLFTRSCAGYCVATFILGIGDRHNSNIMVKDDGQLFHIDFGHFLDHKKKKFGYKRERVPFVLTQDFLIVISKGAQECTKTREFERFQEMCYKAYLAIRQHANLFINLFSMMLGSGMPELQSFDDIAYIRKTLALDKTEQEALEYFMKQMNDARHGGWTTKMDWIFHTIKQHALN
H1047R PIK3CA enzyme, sequence (P27986 whole entry partner): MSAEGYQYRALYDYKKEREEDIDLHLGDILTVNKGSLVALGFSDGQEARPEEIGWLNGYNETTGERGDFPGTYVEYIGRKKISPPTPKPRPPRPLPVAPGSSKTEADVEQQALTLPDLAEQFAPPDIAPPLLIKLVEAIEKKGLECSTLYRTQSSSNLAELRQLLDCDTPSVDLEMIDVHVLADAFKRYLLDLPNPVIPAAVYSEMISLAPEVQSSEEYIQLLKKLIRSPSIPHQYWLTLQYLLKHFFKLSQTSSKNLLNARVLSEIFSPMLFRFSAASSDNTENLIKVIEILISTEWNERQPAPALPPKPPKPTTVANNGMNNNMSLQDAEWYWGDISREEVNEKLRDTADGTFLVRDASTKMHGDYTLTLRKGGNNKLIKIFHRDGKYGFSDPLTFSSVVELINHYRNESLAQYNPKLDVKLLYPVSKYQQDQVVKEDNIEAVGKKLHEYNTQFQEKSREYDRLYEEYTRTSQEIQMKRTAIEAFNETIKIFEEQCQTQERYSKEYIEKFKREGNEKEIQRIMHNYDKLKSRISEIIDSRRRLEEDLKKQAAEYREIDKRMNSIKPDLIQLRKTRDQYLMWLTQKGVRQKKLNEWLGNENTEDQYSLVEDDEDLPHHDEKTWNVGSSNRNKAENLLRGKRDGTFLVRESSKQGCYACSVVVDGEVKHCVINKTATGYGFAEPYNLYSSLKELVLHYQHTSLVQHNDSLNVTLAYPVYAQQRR

Row | Structure (SMILES) | IC50 [nM]
1 | COC1CN(c2cc(NC(=O)c3cc(F)cc(C(F)(F)F)c3)c3c(c2)C(=O)NC3c2cc(F)ccc2Cl)C1 (centres unmarked) [Compound I-728] | 100 to 500
2 | O=C(Nc1cc(-c2cnc3ocnc3c2)cc2c1C(c1cc(F)ccc1Cl)NC2=O)c1cc(F)cc(C(F)(F)F)c1 (centres unmarked) [Compound I-1544] | ≤ 100
3 | O=C(Nc1cc(-c2ccc3ncnn3c2)cc2c1C(c1cc(F)ccc1Cl)NC2=O)C(=NO)c1ccccc1 (centres unmarked) [Compound I-1760] | 10000 to 100000
4 | O=C1Nc2cccc(NC(=O)c3cc(F)cc(C(F)(F)F)c3)c2C(c2ccccc2Cl)N1 (centres unmarked) [Compound I-1212] | 1000 to 10000
5 | Cc1ccccc1C1NC(=O)c2nccc(NC(=O)N3CC(C)c4ccccc43)c21 (centres unmarked) [Compound I-249] | 100 to 500
6 | CC(C)(O)C#Cc1cc(NC(=O)c2cc(F)cc(C(F)(F)F)c2)c2c(c1)C(=O)NC2c1cc(F)ccc1Cl (centres unmarked) [Compound I-1191] | ≤ 100
7 | O=C(Nc1cc(/N=C2/N[C@H](C(F)(F)F)CO2)cc2c1[C@@H](c1cc(F)ccc1Cl)NC2=O)c1cc(F)cc(C(F)(F)F)c1 (single isomer, unassigned) [Compound I-2389] | 1000 to 10000
8 | O=C(Nc1cccc2c1[C@H]([C@@H]1CCCC(F)(F)C1)NC2=O)c1cc(F)cc(C(F)(F)F)c1 [Compound I-1752] | 1000 to 10000
9 | O=C(Nc1cc(Br)cc2c1C(c1cc(F)ccc1Cl)NC2=O)c1cc(F)cc(Cl)c1F (centres unmarked) [Compound I-836] | 500 to 1000
10 | O=C(Nc1cc(-c2ccc3ncnn3c2)nc2c1[C@@H](c1cc(F)ccc1Cl)NC2=O)c1cc(F)cc(C(F)(F)F)c1 [Compound I-1230] | 100 to 500
11 | NCc1cc(NC(=O)c2cc(F)cc(C(F)(F)F)c2)c2c(c1)C(=O)NC2c1cc(F)ccc1Cl (centres unmarked) [Compound I-126] | ≤ 100
12 | O=C1NC(c2cc(F)ccc2Cl)c2c(NC(=O)N3CC4C5CCC(C5)C43)cccc21 (centres unmarked) [Compound I-2429] | 10000 to 100000
13 | O=C(Nc1cc(C[n+]2ccccc2)cc2c1[C@H](c1cc(F)ccc1Cl)NC2=O)c1cc(F)cc(C(F)(F)F)c1 (racemic) [Compound I-1321] | ≤ 100
14 | Cc1ccc(C(=O)Nc2cc(Br)cc3c2C(c2cc(F)ccc2Cl)NC3=O)cc1C(F)(F)F (centres unmarked) [Compound I-875] | 100 to 500
15 | O=C(Nc1cc(Br)cc2c1C(c1cc(F)ccc1Cl)NC2=O)c1csc(Cl)c1Cl (centres unmarked) [Compound I-1417] | 1000 to 10000
16 | O=C1N[C@@H](c2cc(F)ccc2Cl)c2c(NC(=O)[C@H]3CC[C@@H](O)C3)cc(Br)cc21 (single isomer, unassigned) [Compound I-2102] | 10000 to 100000
17 | Cc1ccccc1C1NC(=O)c2cc(CN)cc(NC(=O)c3cc(F)cc(C(F)(F)F)c3)c21 (centres unmarked) [Compound I-260] | 100 to 500
18 | N#Cc1cnccc1-c1cc(NC(=O)c2cc(F)cc(Cl)c2)c2c(n1)C(=O)NC2c1cc(F)ccc1Cl (centres unmarked) [Compound I-506] | ≤ 100
19 | Nc1nc2ccc(-c3cc(NC(=O)c4cc(F)cc(C(F)(F)F)c4)c4c(c3)C(=O)N[C@H]4c3cc(F)ccc3Cl)cn2n1 [Compound I-1445] | ≤ 100
20 | CS(=O)(=O)Cc1cc(NC(=O)c2cc(F)cc(C(F)(F)F)c2)c2c(c1)C(=O)NC2c1cc(F)ccc1Cl (centres unmarked) [Compound I-310] | ≤ 100
21 | Cc1ccccc1C1NC(=O)c2c(CCO)ccc(NC(=O)c3csc4ccccc34)c21 (centres unmarked) [Compound I-119] | ≤ 100
22 | O=C(Nc1cc(CC2CCO2)cc2c1C(c1cc(F)ccc1Cl)NC2=O)c1cc(F)cc(C(F)(F)F)c1 (centres unmarked) [Compound I-1302] | ≤ 100

Row | Structure (SMILES) | IC50 [nM]
23 | O=C(Nc1cc(C2COC2)nc2c1C(c1cc(F)ccc1Cl)NC2=O)c1cc(F)cc(C(F)(F)F)c1 (centres unmarked) [Compound I-689] | 100 to 500
24 | O=C(Nc1cccc2c1C(c1cccc3ccccc13)NC2=O)c1cc(F)cc(C(F)(F)F)c1 (centres unmarked) [Compound I-431] | 1000 to 10000
25 | O=C1N[C@@H](c2cc(F)ccc2Cl)c2c(NC(=O)[C@H]3C[C@H](O)C[C@@H](C(F)(F)F)C3)cc(Br)cc21 (single isomer, unassigned) [Compound I-2151] | 1000 to 10000
26 | O=C1NC(c2cc(F)ccc2Cl)c2c(NC(=O)N3CCc4ccccc43)cc(Br)cc21 (centres unmarked) [Compound I-309] | ≤ 100
27 | CN(C)C(=O)Cc1cc(NC(=O)c2cc(F)cc(C(F)(F)F)c2)c2c(c1)C(=O)NC2c1cc(F)ccc1Cl (centres unmarked) [Compound I-476] | ≤ 100
28 | O=C(Nc1cccc2c1[C@@H](CC1CCCCC1)NC2=O)c1cc(F)cc(C(F)(F)F)c1 [Compound I-2057] | 1000 to 10000
29 | N#Cc1cc(NC(=O)c2cc(F)cc(C(F)(F)F)c2)c2c(c1)C(=O)NC2c1cc(F)ccc1Cl (centres unmarked) [Compound I-490] | ≤ 100
30 | COc1ccc(Cl)cc1C(=O)Nc1cc(Br)cc2c1C(c1cc(F)ccc1Cl)NC2=O (centres unmarked) [Compound I-799] | 1000 to 10000
31 | O=C(Nc1cccc2c1C(c1cc(F)ccc1Cl)NC2=O)c1ncc(Br)s1 (centres unmarked) [Compound I-2112] | 10000 to 100000
32 | CC(=O)N1CC(C2NC(=O)c3cccc(NC(=O)c4cc(F)cc(C(F)(F)F)c4)c32)C1 (centres unmarked) [Compound I-1909] | 10000 to 100000
33 | Cc1c(-c2cc(NC(=O)c3cc(F)cc(C(F)(F)F)c3)c3c(c2)C(=O)N[C@@H]3c2cc(F)ccc2Cl)ccc2ncnn12 [Compound I-1875] | 1000 to 10000
34 | O=C(Nc1cc(-c2ccc3c(c2)OCCCO3)cc2c1C(c1cc(F)ccc1Cl)NC2=O)c1cc(F)cc(C(F)(F)F)c1 (centres unmarked) [Compound I-851] | ≤ 100
35 | O=C(Nc1cc(-c2ccc3ncnn3c2)cc2c1[C@@H](c1cc(F)ccc1Cl)NC2=O)c1cc(Cl)cc(Cl)c1 (stereo in doubt) [Compound I-1207] | 1000 to 10000
36 | CC(O)Cc1cc(NC(=O)c2cc(F)cc(C(F)(F)F)c2)c2c(c1)C(=O)NC2c1cc(F)ccc1Cl (racemic) [Compound I-665] | ≤ 100
37 | O=C(Nc1cc(-c2ccc3ncc(F)n3c2)cc2c1[C@H](c1cc(F)ccc1Cl)NC2=O)c1cc(F)cc(C(F)(F)F)c1 [Compound I-1870] | ≤ 100
38 | Cc1ccccc1C1NC(=O)c2cccc(NC(=O)c3cccc(F)c3)c21 (centres unmarked) [Compound I-475] | 1000 to 10000
39 | O=C(Nc1cccc2c1C(C(=O)NC1CCCCC1)NC2=O)c1cc(F)cc(C(F)(F)F)c1 (centres unmarked) [Compound I-2054] | 10000 to 100000
40 | O=C(Nc1cccc2c1C(=O)NS2(=O)=O)c1cc(F)cc(C(F)(F)F)c1 [Compound I-472] | 10000 to 100000
41 | Cc1ccccc1C1NC(=O)c2cccc(NC(=O)c3nc(C)c4c(F)cc(F)cn34)c21 (centres unmarked) [Compound I-342] | 10000 to 100000
42 | O=C(Nc1cc(-c2ccccc2C(=O)O)cc2c1C(c1cc(F)ccc1Cl)NC2=O)c1cc(F)cc(C(F)(F)F)c1 (centres unmarked) [Compound I-1216] | 100 to 500
43 | COC1CC(Nc2cc(NC(=O)c3cc(F)cc(C(F)(F)F)c3)c3c(c2)C(=O)NC3c2cc(F)ccc2Cl)C1 (single isomer, unassigned) [Compound I-781] | ≤ 100
44 | N#Cc1cnc2cc(F)c(-c3cc(NC(=O)c4cc(F)cc(C(F)(F)F)c4)c4c(c3)C(=O)N[C@@H]4c3cc(F)ccc3Cl)cn12 [Compound I-1883] | 1000 to 10000

Row | Structure (SMILES) | IC50 [nM]
45 | O=C1N[C@@H](c2ccccc2Cl)c2c(NC(=O)N3C[C@@](O)(C(F)(F)F)c4cc(F)ccc43)cccc21 (single isomer, unassigned) [Compound I-2685] | 10000 to 100000
46 | O=C(Nc1cc(Br)cc2c1C(c1cc(F)ccc1Cl)NC2=O)c1cccc(C(F)(F)F)c1 (centres unmarked) [Compound I-801] | 100 to 500
47 | CNC(=O)c1cc(NC(=O)c2cc(F)cc(C(F)(F)F)c2)c2c(c1)C(=O)N[C@@H]2c1ccccc1C [Compound I-211] | 10000 to 100000
48 | NC(=O)c1cc(-c2ccc3ncnn3c2)cc2c1C(c1cc(F)ccc1Cl)NC2=O (centres unmarked) [Compound I-1774] | 1000 to 10000
49 | O=C(Nc1cc(-c2ccc3ncnn3c2)cc2c1C(c1cc(F)ccc1Cl)NC2=O)c1cc(CO)cc(C(F)(F)F)c1 (centres unmarked) [Compound I-1773] | 10000 to 100000
50 | O=C(Nc1cc(-c2ccc3ncnn3c2)cc2c1[C@H](c1cc(F)ccc1Cl)NC2=O)c1cc(F)cc(C(F)F)c1 (stereo in doubt) [Compound I-1171] | 100 to 500
51 | CC(C)[C@]1(O)CN(C(=O)Nc2cccc3c2[C@@H](c2cc(F)ccc2Cl)NC3=O)c2ccc(F)cc21 (single isomer, unassigned) [Compound I-2455] | 1000 to 10000
52 | O=C(Nc1cc(-c2ncc[nH]2)cc2c1[C@@H](c1cc(F)ccc1Cl)NC2=O)c1cc(F)cc(C(F)(F)F)c1 [Compound I-918] | 500 to 1000
53 | Cc1cc(=O)[nH]cc1C(=O)Nc1cc(Br)cc2c1[C@H](c1cc(F)ccc1Cl)NC2=O [Compound I-2108] | 10000 to 100000
54 | O=C1N[C@@H](c2cc(F)ccc2Cl)c2c(NC(=O)N3C[C@@](O)(C(F)(F)F)c4cc(F)ccc43)ccc(-n3ccnn3)c21 (single isomer, unassigned) [Compound I-2523] | 1000 to 10000
55 | O=C(Nc1ccnc2c1C(c1ccccc1Cl)NC2=O)c1cc(F)c(F)c(Cl)c1 (centres unmarked) [Compound I-550] | 500 to 1000
56 | O=C(Nc1cc(-c2ccn3nc(Cl)nc3c2)cc2c1[C@H](c1cc(F)ccc1Cl)NC2=O)c1cc(F)cc(C(F)(F)F)c1 [Compound I-1697] | ≤ 100
57 | O=C(Nc1cc(-c2ccn3nccc3c2)cc2c1C(c1cc(F)ccc1Cl)NC2=O)c1cc(F)cc(C(F)(F)F)c1 (centres unmarked) [Compound I-1669] | ≤ 100
58 | O=C(Nc1cccc2c1C(c1cc(F)ccc1Cl)NC2=O)c1cc(O)cc(C(F)(F)F)c1 (centres unmarked) [Compound I-448] | 500 to 1000
59 | Cc1ccccc1C1NC(=O)c2cccc(NC(=O)c3cc(Br)sn3)c21 (centres unmarked) [Compound I-453] | 10000 to 100000
60 | O=C(Nc1cccc2c1C(C1CCCC(O)C1)NC2=O)c1cc(F)cc(C(F)(F)F)c1 (mixture of isomers) [Compound I-2226] | 10000 to 100000
61 | O=C1NC(c2cc(F)ccc2Cl)c2c(NC(=O)N3CCC4C(C3)C4C(F)(F)F)cc(Br)cc21 (centres unmarked) [Compound I-1756] | 1000 to 10000
62 | O=C(Nc1cccc2c1C(C1CCCCC1O)NC2=O)c1cc(F)cc(C(F)(F)F)c1 (centres unmarked) [Compound I-1820] | 10000 to 100000
63 | Cc1ccccc1[C@H]1NC(=O)c2cccc(NC(=O)c3coc4c(F)cc(F)cc34)c21 [Compound I-97] | 10000 to 100000
64 | CC1(C2NC(=O)c3cccc(NC(=O)c4cc(F)cc(C(F)(F)F)c4)c32)CC1 (racemic) [Compound I-1791] | 10000 to 100000
65 | N#CCc1cc(NC(=O)N2C[C@@](O)(C(F)F)c3cc(F)ccc32)c2c(c1)C(=O)N[C@H]2c1cc(F)ccc1Cl (single isomer, unassigned) [Compound I-2599] | 100 to 500

Source: patent US12581252B2, “Substituted pyrrolo[3,4-b]pyridines as PI3K-α inhibitors” (Relay Therapeutics, Inc., priority 2020, dated 2026)
